Data taken from patent US12534748B2, “Engineered beta-subunit of tryptophan synthase for production of non-canonical amino acids” (California Institute of Technology, priority 2015, dated 2026).

Target: T1, PfTrpB^2B9 (Pyrococcus furiosus, UniProt Q8U093, E17G/F274S/F95L/I16V/I68V/T292S/T321A/V384A)
T1 construct: made in house; host or cells: E. coli BL21 E. cloni Express
Assay: TTN of β-substitution reaction with L-Thr with different nucleophiles
Assay type: biochemical
Conditions: for TTN: LC-MS
Method: Total Turnover Number (TTN) determination. Measurements were made using HPLC and LC-MS instruments. The amount of Trp formed was measured at 280 nm using a standard curve with trichlorobenzene as internal standard. […] This method is insensitive to loading volume and results agreed with measurements using a standard curve. […] This same technique was used to determine the TTN of the PfTrpB^2B9 reaction with different nucleophiles. […] Reactions were set up in triplicate using a total volume of 150 μL with 25 mM nucleophile and 250 mM L-Thr in 200 mM potassium phosphate pH 8.0 in borosilicate glass vials, as plastics can absorb indoles at high temperatures. Before addition of enzyme, all reagents were transferred into a Coy anaerobic chamber with <1 ppm O2 to rapidly exchange the atmosphere in the headspace of the vials to 95/5% N2/H2, which limits competing non-catalytic oxidation of indoles. Enzyme was added in the anaerobic environment with varied catalyst loading to ensure a robust product signal in subsequent analysis. Reaction vessels were capped before being removed from the anaerobic chamber and incubated in a 75° C. water bath for 24 hours. Reactions were quenched the next day by addition of 1 volume (150 μL) of 100% ACN, mixing, and allowing to rest at room temperature for 10 min. Quenched solutions were then diluted 5-fold with 40% ACN in water and analyzed via LC-MS. In all cases, auxiliary peaks that would indicate non-catalytic degradation of substrate were present at only low levels, contributing to <1% of the total integration signal for a given wavelength. For 7-azaindole, a second peak with m/z=220 was observed that was also found in larger scale reactions and whose properties are consistent with an N-alkylated product.
With these reaction conditions in hand, a characterization of the substrate scope of the reaction with Thr was performed. A small panel of indole-like nucleophiles were screened for reaction with PfTrpB^0B2 and Ser, and a significant boosts in activity was observed. This was expanded on this panel of nucleophiles and tests for activity with PfTrpB^2B9 using an excess of Thr was performed. Reactions were run to intermediate yield to determine the TTN with a given nucleophile and the identity of the products was established with a separate preparative-scale reaction using 100 mM nucleophile, 1.0 M Thr, and 0.02-0.25 mol % PfTrpB^2B9 catalyst. […] To probe the role of electronic effects on the C—C bond forming step, activity was tested with 4-fluoro and 5-fluoroindole, which are more closely isosteric with indole but have decreased electron density in the π-system. Product formation with each substrate and 3.4-fold decreased TTN with the 4-fluoro substrate was observed, which is more electron withdrawing at C-3 than the 5-fluoro substituent. The increased steric constraints of the activity site were again clear, as no activity with the 5-chloro-, 5-bromo, and 6-hydroxyindoles, which undergo reaction with Ser, was observed. […] This regioselectivity is well known with the indazole, which we found reacts exclusively to form the N-alkylated product. […] Inclusion of DTT reduced this side reaction.

[1] = 25 mM nucleophile, 250 mM L-Thr, 24 hour reaction at 75° C.

T1 sequence (Q8U093 other isoform, or with tags, fused parts or gaps I16V/E17G/I68V/F95L/F274S/T292S/T321A/V384A): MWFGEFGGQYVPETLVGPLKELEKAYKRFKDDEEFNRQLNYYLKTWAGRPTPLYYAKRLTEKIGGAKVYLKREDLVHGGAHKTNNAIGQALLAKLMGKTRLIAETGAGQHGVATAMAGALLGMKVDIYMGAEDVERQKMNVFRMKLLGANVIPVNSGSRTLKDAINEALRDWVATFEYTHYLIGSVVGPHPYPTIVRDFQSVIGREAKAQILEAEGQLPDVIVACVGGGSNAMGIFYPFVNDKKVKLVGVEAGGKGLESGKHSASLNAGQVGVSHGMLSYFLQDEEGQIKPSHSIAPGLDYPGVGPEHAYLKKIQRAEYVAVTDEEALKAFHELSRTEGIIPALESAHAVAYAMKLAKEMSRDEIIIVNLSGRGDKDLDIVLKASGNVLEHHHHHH

Compound | reactivity of nucleophile with PfTrpB^2B9 and excess Thr | TTN [1] | also measured
Sc1ccccc1 [thiophenol] | low turnover | – | –
SCc1ccccc1 [benzyl mercaptan] | low turnover | – | –
c1ccc2[nH]ccc2c1 [Indole] | – | 8200 ± 1600 | –
c1cnc2[nH]ccc2c1 [7-Azaindole] | – | – | TTN, C-alkylation [1]: C-alkylation-220 ± 40; TTN, N-alkylation [1]: N-alkylation-32 ± 3
c1ccc2c(c1)CCN2 [indoline] | no product formation | – | –
Cc1cc2ccccc2[nH]1 [2-Methylindole] | Good reactivity | 6400 ± 1400 | –
Cc1ccc2cc[nH]c2c1 [6-Methylindole] | Good reactivity | 1100 ± 100 | –
c1ccc2[nH]ncc2c1 [Indazole] | – | 500 ± 40 | –
Fc1cccc2[nH]ccc12 [4-Fluoroindole] | – | 378 ± 8 | decrease of TTN (4-fluoro versus 5-fluoro substrate): 3.4 fold
Fc1ccc2[nH]ccc2c1 [5-Fluoroindole] | – | 1300 ± 280 | –
